Experimental data as given in patent US8507290B2, “Water-soluble silsesquioxanes as organic quantum dots for sensing and imaging” (National University of Singapore, priority 2009, dated 2013).

Legend:
dsDNA and RNA = conditions: cited from earlier work
[1] = system: breast cancer cells (MCF-7); test: One-photon and two-photon fluorescent cellular nucleus imaging (CLSM); assay type: cell-based; conditions: 2 h, signals above 560 nm
Experimental: One-photon and two-photon fluorescence images of the MCF-7 cells were then obtained.
OPEF imaging was obtained by excitation of the cells at 488 nm and collection of fluorescence above 560 nm under the fixed parameters. […] As nucleolus is the site of ribosomal RNA synthesis, it has the highest concentration of RNA in nucleus.
For TPEF imaging, the dye concentrations are fixed at 1 μM, and the cellular images were acquired by excitation of the cells at near-infrared wavelength (760 nm) and collection of signals above 560 nm.

Compound | light-up response toward dsDNA and RNA (commercial dyes) (dsDNA and RNA) | two-photon fluorescence (TPEF) imaging of nucleus ([1]; MCF-7, 1 μM dye, excitation at 760 nm) | one-photon fluorescence (OPEF) imaging: uptake and localisation ([1]; MCF-7, dye 1 μM (also 0.1 and 0.02 μM), excitation at 488 nm)
SYTO 9 | nearly equal light-up responses toward dsDNA and RNA | – | –
CCCN(CCCN(C)C)c1cc(/C=C2/Sc3ccccc3N2C)c2ccccc2[n+]1-c1ccccc1 [SG, SYBR Green I] | only shows strong light-up response toward dsDNA | does not provide a clear cellular image | homogenously-stained nucleus pattern
